Consider 2 compounds from patent US5254563A, “Beta-carbolines, process for their production and their use in pharmaceutical agents” (Schering Aktiengesellschaft, priority 1989, dated 1993).

The nature of data set [1]: Metabolic stability in human liver homogenate. In kind it is in vitro ADME. The conditions noted are these: 2 hours at 37° C., HPLC/fluorimetry, read-out: Metabolic Stability (substance remaining). As for the experimental part: The metabolic stability is determined by a homogenate of hepatic tissue in physiological common salt solution being incubated with the test substance for 0 or 2 hours at 37° C. Then, the incubation batch is extracted and the content of test substance in the extract is determined by HPLC/fluorimetry. The substance remaining after 2 hours in comparison with 0 hours is expressed in percent stability.

A further data set deals with benzodiazepine receptors. Description: Inhibition of the H^3-BD binding in vivo (displacement of radioactively-labeled flunitrazepam). The conditions noted are these: mice, i.p.; 3H-flunitrazepam i.v. after 15 minutes, forebrains removed after another 20 minutes; dose reducing specific binding to 50% of control.

As for `COCc1c(C(=O)c2ccccc2)ncc2[nH]c3ccc(OCc4ccccc4)cc3c12` [A, 6-Benzyloxy-4-methoxymethyl-3-benzoyl-beta-carboline], the amount remaining at 2 h in data set [1] was found to be 72%. Besides, in the data set with benzodiazepine receptors, the “Inhibition of the H^3 -BD binding In vivo ED50” value is 5.0 mg/kg.
Regarding `COCc1c(C(=O)Oc2ccccc2)ncc2[nH]c3ccc(OCc4ccccc4)cc3c12` [B, 6benzyloxy-4-methoxymethyl-beta-carboline-3-carboxylic acid phenyl ester, reference compound], the “Inhibition of the H^3 -BD binding In vivo ED50” value in the data set with benzodiazepine receptors is “greater than 90 mg/kg”.
